Measured values published in ChEMBL document CHEMBL1201862, “PubChem BioAssay data set” (2004).
Active and inactive are the calls of the source.

Tests used:
[1] = target: Melanocortin receptor 4 (Homo sapiens, UniProt P32245); type: functional, cell-based;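 further: Cell-based assay with luminescence read-out, confirmatory dose-response testing for agonist activity of biased ligands at MC4R; human U2OS cells with tagged receptor and beta-arrestin; potency of agonists that increase receptor coupling to beta-arrestin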
[2] = target: T1, Fatty acid synthase (Homo sapiens, UniProt P49327); assay: FAS thioesterase domain inhibitors, dose response, biochemical, endpoint fluorescence intensity, uHTS hits (AID 624327); type: functional;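 further: fluorescence from hydrolysis of an O-methyl fluorescein acyl ester substrate by the enzyme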
[3] = target: T1, Fatty acid synthase; assay: FAS thioesterase domain inhibitors, dose response, biochemical, kinetic fluorescence intensity (AID 624326); type: functional;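 further: rate of fluorescence rise from hydrolysis of a fluorogenic O-methyl fluorescein ester substrate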
[4] = target: Prothrombin (Homo sapiens, UniProt P00734); assay: Thrombin 1536 HTS Dose Response Confirmation. [Related pubchem assays: 1046 (Thrombin 1536 HTS; hits were confirmed in this assay)]; type: functional
[5] = target: Estrogen receptor beta (Homo sapiens, UniProt Q92731);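 further: recombinant ER-beta bound to coactivator SRC1 peptide in presence of estradiol agonist; inhibitors block coactivator peptide binding and lower the FRET signal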
[6] = cells; type: functional, cell-based
[7] = target: T2, Trace amine-associated receptor 1 (Homo sapiens, UniProt Q96RJ0); assay: Counterscreen for agonists of the human trace amine associated receptor 1 (hTAAR1): Fluorescence-based cell-based high throughput dose response assay to identify hTAAR1 agonist that also desensitize TAAR1 receptor response.; type: functional
T2 sequence (Q96RJ0 whole entry): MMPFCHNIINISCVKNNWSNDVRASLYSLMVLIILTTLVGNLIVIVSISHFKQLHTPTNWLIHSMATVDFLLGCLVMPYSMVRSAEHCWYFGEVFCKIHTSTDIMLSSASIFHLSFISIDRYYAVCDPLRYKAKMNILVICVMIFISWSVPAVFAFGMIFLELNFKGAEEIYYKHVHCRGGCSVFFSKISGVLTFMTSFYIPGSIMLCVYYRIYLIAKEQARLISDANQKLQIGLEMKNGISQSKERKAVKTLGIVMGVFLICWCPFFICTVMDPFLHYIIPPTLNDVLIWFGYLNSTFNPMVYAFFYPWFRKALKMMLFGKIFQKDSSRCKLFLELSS

[8] = target: T2, Trace amine-associated receptor 1; assay: Fluorescence-based cell-based high throughput dose response assay to identify agonists of the human trace amine associated receptor 1 (TAAR1).; type: functional
[9] = cells; type: functional, cell-based; remark: listed apart in the source
[10] = target: T3, Rac GTPase-activating protein 1 (Homo sapiens, UniProt Q9H0H5); assay: MgcRacGAP GTPase-activating activity inhibitors, confirmation, biochemical, ADP Hunter fluorescence, primary and confirmatory (AID 624330); type: functional
T3 sequence (Q9H0H5 whole entry): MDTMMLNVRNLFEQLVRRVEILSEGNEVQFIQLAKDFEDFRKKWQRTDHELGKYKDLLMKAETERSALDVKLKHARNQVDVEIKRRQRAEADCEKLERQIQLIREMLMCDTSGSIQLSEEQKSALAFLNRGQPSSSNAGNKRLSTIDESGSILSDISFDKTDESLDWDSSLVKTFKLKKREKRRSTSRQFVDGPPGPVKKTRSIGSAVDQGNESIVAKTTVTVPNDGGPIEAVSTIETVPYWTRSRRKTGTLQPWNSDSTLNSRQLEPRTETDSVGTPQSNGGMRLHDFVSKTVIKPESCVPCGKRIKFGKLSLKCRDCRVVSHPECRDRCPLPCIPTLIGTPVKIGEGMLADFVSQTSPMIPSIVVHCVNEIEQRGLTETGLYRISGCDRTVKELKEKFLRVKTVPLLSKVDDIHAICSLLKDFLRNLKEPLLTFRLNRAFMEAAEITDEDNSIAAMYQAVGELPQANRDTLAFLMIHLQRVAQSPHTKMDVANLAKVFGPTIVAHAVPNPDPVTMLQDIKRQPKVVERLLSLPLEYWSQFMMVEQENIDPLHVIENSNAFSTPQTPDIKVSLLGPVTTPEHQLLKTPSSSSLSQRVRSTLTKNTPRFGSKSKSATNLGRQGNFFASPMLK

[11] = target: T4, Sentrin-specific protease 8 (Homo sapiens, UniProt Q96LD8); assay: SENP8 protease inhibitors, SAR follow-up, biochemical, luminescence (AID 504501); type: functional
T4 sequence (Q96LD8 whole entry): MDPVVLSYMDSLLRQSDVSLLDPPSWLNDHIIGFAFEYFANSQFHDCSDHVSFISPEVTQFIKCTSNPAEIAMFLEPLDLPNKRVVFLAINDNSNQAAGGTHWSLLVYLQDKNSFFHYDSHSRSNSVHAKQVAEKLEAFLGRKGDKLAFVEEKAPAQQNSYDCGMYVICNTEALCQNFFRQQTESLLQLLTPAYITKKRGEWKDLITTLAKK

[12] = target: T5, Sentrin-specific protease 7 (Homo sapiens, UniProt Q9BQF6); assay: SENP7 protease inhibitors, SAR follow-up, biochemical, luminescence (AID 504497); type: functional
T5 sequence (Q9BQF6 whole entry): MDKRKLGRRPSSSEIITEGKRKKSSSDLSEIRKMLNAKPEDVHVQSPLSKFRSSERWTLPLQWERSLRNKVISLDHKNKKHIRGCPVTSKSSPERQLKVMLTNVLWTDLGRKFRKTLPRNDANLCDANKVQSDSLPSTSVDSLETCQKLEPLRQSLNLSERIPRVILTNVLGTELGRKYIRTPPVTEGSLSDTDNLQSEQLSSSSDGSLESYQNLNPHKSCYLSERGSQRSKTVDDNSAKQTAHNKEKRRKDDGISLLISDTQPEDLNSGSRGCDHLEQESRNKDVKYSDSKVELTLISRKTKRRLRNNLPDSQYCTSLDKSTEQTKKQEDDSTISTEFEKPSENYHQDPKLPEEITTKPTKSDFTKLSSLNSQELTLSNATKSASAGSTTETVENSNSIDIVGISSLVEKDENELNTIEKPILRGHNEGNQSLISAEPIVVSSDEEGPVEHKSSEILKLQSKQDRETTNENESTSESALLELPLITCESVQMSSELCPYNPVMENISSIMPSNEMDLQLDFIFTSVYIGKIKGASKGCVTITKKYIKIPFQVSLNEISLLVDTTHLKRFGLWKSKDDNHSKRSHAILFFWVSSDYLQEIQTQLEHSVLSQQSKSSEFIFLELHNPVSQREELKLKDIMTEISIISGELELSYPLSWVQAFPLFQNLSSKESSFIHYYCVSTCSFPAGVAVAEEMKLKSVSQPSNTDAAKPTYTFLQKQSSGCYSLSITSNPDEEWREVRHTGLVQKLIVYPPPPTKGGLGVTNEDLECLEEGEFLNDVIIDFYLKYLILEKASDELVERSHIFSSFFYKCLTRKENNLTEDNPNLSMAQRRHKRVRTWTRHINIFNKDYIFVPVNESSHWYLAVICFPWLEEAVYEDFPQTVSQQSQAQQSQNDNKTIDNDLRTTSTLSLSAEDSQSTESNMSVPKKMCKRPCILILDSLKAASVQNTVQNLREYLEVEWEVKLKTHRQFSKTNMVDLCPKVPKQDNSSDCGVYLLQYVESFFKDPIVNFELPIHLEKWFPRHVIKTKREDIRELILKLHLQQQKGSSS

[13] = target: T6, Caspase-3 (Homo sapiens, UniProt P42574); assay: SAR Analysis of small molecule inhibitors of Sentrin-specific proteases (SENPs) using a Caspase-3 Selectivity assay. [Related pubchem assays (depositor defined):AID2540, AID2599, AID434973, AID489001]; type: functional
T6 sequence (P42574 whole entry): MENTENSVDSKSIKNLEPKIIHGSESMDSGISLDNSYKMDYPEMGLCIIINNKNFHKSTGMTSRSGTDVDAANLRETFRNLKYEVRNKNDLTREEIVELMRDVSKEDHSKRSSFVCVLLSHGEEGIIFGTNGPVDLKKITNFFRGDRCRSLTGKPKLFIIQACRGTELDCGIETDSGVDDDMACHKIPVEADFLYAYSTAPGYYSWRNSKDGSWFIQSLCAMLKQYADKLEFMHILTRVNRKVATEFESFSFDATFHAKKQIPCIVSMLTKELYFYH

[14] = target: T7, Sentrin-specific protease 6 (Homo sapiens, UniProt Q9GZR1); assay: SAR Analysis of small molecule inhibitors of Sentrin-specific protease 6 (SENP6) using a Luminescent assay. [Related pubchem assays (depositor defined):AID2582, AID2599]; type: functional
T7 sequence (Q9GZR1 whole entry): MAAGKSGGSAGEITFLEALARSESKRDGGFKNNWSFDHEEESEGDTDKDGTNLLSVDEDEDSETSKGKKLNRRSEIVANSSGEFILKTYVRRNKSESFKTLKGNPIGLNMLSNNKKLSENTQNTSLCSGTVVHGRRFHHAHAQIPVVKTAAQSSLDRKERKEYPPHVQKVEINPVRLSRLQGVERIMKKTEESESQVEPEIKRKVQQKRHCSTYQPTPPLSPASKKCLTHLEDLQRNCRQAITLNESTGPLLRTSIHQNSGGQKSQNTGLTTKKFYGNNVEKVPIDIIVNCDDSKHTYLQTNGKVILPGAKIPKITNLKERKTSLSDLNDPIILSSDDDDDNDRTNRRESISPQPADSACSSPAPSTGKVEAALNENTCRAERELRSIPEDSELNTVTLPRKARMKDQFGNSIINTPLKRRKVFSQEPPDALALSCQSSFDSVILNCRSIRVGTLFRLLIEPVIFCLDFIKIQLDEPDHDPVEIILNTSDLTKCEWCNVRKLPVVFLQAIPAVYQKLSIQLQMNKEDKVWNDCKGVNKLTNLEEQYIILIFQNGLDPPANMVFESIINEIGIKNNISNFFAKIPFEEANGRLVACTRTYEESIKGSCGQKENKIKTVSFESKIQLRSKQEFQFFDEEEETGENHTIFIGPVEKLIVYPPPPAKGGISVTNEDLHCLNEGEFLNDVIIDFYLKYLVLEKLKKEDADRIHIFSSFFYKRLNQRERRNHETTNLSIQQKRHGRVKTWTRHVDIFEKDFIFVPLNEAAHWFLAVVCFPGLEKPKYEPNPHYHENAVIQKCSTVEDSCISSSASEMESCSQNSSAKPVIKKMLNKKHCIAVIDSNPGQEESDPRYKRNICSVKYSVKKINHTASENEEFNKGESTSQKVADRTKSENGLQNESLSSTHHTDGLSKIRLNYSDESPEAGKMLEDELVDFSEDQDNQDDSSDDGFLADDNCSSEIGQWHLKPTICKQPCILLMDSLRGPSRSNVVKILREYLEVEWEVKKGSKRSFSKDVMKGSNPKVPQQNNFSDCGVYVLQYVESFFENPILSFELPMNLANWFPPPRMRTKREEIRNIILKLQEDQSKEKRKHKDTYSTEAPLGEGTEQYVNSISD

Sequence of Melanocortin receptor 4 (P32245 whole entry, the tested form may be a part): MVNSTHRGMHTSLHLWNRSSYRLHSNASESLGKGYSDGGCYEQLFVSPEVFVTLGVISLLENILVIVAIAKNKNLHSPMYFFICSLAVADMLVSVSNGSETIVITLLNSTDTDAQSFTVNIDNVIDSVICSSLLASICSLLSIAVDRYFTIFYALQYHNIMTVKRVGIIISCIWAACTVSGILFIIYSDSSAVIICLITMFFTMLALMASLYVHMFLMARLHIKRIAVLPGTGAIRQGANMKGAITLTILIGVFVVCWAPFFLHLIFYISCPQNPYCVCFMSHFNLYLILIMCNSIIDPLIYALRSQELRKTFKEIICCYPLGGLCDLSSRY
T1 sequence (P49327 whole entry, the tested form may be a part): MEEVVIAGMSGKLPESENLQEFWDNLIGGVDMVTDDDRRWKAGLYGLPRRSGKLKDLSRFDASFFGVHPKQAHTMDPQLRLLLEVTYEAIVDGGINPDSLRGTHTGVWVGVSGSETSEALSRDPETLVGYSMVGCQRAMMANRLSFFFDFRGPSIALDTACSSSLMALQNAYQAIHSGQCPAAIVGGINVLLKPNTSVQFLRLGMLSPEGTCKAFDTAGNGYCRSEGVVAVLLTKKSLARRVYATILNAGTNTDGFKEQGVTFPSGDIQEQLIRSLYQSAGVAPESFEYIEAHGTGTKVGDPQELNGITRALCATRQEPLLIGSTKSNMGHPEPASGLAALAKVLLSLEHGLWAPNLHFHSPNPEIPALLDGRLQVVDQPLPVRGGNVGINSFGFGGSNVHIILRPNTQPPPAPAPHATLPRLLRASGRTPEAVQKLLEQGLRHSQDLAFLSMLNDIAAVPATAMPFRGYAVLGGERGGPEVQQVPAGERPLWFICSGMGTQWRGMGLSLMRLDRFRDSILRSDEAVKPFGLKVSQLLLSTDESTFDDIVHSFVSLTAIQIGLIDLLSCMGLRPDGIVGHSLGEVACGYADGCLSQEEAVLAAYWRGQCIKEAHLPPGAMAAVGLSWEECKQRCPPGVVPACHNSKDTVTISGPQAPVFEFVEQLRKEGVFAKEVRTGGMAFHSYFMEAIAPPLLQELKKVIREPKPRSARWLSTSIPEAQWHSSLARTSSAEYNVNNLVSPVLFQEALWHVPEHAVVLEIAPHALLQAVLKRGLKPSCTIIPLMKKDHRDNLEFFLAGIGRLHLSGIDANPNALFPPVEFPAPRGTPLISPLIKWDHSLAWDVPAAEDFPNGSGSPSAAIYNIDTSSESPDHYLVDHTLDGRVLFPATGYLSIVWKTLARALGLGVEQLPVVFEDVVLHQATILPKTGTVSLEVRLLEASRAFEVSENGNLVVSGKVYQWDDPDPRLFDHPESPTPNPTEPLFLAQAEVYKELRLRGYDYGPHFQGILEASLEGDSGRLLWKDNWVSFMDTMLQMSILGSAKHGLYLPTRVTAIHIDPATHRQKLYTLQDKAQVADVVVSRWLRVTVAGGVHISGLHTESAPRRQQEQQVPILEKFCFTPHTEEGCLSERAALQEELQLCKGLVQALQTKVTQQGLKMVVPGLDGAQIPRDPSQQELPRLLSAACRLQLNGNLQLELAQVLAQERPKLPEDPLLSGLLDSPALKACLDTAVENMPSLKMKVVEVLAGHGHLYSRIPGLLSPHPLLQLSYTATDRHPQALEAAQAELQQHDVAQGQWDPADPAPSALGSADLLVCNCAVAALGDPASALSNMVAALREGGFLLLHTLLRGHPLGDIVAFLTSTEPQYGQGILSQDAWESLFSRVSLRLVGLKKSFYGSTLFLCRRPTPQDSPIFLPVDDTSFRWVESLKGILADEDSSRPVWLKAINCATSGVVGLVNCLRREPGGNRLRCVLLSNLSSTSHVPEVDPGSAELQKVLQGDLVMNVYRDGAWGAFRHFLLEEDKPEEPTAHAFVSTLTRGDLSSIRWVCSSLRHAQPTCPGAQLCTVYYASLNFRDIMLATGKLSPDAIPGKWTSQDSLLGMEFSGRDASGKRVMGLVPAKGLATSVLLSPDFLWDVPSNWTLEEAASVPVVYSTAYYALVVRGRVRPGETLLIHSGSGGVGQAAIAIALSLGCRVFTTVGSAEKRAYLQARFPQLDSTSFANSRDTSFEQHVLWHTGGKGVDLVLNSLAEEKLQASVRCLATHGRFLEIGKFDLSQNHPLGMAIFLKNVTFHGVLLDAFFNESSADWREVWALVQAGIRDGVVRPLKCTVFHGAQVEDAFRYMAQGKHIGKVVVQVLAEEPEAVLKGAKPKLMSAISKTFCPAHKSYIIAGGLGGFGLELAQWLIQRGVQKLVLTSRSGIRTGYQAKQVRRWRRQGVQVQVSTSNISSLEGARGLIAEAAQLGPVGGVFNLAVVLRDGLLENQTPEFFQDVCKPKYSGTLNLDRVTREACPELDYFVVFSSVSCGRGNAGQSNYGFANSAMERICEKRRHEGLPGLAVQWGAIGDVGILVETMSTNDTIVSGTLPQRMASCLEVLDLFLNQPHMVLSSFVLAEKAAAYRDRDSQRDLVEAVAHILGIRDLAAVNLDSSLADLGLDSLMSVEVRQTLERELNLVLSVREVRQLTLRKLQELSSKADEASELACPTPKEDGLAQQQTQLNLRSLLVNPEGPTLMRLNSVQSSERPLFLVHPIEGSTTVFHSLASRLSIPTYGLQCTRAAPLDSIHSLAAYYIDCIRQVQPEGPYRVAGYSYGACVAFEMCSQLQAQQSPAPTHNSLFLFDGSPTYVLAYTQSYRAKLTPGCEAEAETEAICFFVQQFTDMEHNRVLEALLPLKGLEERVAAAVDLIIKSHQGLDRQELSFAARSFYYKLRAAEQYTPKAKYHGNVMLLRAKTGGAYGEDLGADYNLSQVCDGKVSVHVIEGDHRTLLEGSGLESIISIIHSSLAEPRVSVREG
Sequence of Estrogen receptor beta (Q92731 whole entry): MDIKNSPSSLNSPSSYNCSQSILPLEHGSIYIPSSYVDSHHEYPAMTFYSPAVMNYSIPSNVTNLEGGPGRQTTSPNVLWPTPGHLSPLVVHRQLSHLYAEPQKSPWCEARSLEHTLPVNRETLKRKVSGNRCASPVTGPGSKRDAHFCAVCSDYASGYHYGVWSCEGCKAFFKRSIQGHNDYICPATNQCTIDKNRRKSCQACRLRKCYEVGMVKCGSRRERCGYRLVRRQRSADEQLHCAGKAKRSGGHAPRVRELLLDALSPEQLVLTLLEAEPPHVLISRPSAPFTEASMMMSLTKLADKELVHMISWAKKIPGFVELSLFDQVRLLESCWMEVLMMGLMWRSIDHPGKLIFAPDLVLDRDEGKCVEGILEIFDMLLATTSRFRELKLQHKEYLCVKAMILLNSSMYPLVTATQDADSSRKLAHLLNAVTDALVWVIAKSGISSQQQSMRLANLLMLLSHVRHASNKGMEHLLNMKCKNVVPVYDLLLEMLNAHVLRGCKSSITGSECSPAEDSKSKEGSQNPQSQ

In the case of `Cc1ccccc1-c1nc(-c2ccc(NC(=O)c3ccc(Br)o3)cc2)no1`, the EC50 [1] is reported as > 89.2 µM (inactive).
In the case of `CCn1cc(C(=O)NCc2ccc3c(c2)OCO3)c(=O)c2cc(S(=O)(=O)N(C)C)ccc21`, the IC50 [2] is reported as 8.88 µM (active), the IC50 [3] is reported as 12.1 µM (active) and the IC50 [4] is reported as 0.537 µM (active).
For `CCN(CC)S(=O)(=O)c1ccc(C(=O)NCc2ccc(C)cc2)cc1`, the IC50 [5] was > 50 µM (not active).
In the case of `NNc1nc(Nc2ccccc2)nc(N2CCCCC2)n1`, the EC50 [6] is reported as > 29.9 µM (inactive), the IC50 [7] is reported as 8.76 µM (active) and the EC50 [8] is reported as 3.48 µM (active). The IC50 [9] was > 29.9 µM (inactive).
For `CCOC(=O)c1[nH]c2ccccc2c1NC(=S)Nc1ccccc1`, the IC50 [10] was 108 µM (active) and the IC50 [4] was 3.09 µM (active).
For `O=C(COC(=O)Cc1ccccc1F)NCCc1ccccc1`, the EC50 [6] was > 29.9 µM (inactive), the IC50 [7] was 2.35 µM (active) and the EC50 [8] was > 9.96 µM (active). The IC50 [9] was > 29.9 µM (inactive).
With `CC(=O)n1nc(-c2ccccc2)nc1NCc1ccc(F)cc1` the IC50 [4] was 0.0165 µM (active).
With `O=C(CN1CCc2ccccc2C1)Nc1ccccc1C(F)(F)F` the IC50 [10] was 205 µM (active), the EC50 [6] was > 29.9 µM (inactive) and the IC50 [7] was 11.1 µM (inactive). For the same molecule, the EC50 [8] was 3.55 µM (active) and the IC50 [9] was > 29.9 µM (inactive).
In the case of `CCOC(=O)CSc1nnc(NC(=O)c2cc([N+](=O)[O-])cc([N+](=O)[O-])c2)s1`, the IC50 [4] is reported as > 50 µM (not active).
In the case of `CCOC(=O)c1c(-c2ccc(Br)cc2)csc1NC(=O)C1CC1`, the IC50 [11] is reported as > 99 µM (inactive), the IC50 [12] is reported as > 99 µM (inactive) and the IC50 [13] is reported as > 99 µM (inactive). For the same molecule, the IC50 [14] was > 99 µM (inactive).
In the case of `COc1ccc(CNC(=O)Nc2nc(C(N)Cc3ccc(C(F)(F)F)cc3)cs2)cc1` (centres undefined), the EC50 [1] is reported as > 89.2 µM (inactive).
For `CS(=O)(=O)c1ccc2nc(NC(=O)c3cccc(NS(=O)(=O)c4ccccc4)c3)sc2c1`, the IC50 [11] was > 99 µM (inactive), the IC50 [12] was > 99 µM (inactive) and the IC50 [13] was > 99 µM (inactive). For the same molecule, the IC50 [14] was > 99 µM (inactive).
In the case of `COc1ccc(N/N=C/c2cn(Cc3ccccc3)c3ccccc23)cc1`, the IC50 [11] is reported as > 99 µM (inactive), the IC50 [12] is reported as > 99 µM (inactive) and the IC50 [13] is reported as > 99 µM (inactive). The IC50 [14] was > 99 µM (inactive).
For `Cc1ccc(S(=O)(=O)Nc2ccc3sc(NC(=O)c4ccccc4)nc3c2)cc1`, the IC50 [11] was > 99 µM (inactive), the IC50 [12] was > 99 µM (inactive) and the IC50 [13] was > 99 µM (inactive). For the same molecule, the IC50 [14] was > 99 µM (inactive).
For `COc1ccc(-c2cc(NC=O)c3ncc(-c4cccc(C(F)(F)F)c4)n3c2)cc1OC`, the EC50 [1] was 12.4 µM (inactive).
In the case of `C/C(=N\NC(=O)COc1cccc2ccccc12)c1cccs1`, the EC50 [1] is reported as > 89.2 µM (inactive).
With `CCOC(=O)N[C@H](C(=O)N1CCC[C@H]1C(=O)NCCc1ccccc1Cl)c1ccccc1` the EC50 [6] was > 29.9 µM (inactive), the IC50 [7] was 6.89 µM (active) and the EC50 [8] was 2.06 µM (active). For the same molecule, the IC50 [9] was > 29.9 µM (inactive).
For `Nc1nc(-c2ccccc2)cn1/N=C/c1ccccc1`, the EC50 [6] was > 29.9 µM (inactive), the IC50 [7] was 8.47 µM (active) and the EC50 [8] was 1.49 µM (active). For the same molecule, the IC50 [9] was > 29.9 µM (inactive).
